Consider 41 molecules from ChEMBL document CHEMBL4680251, “Discovery of a 2-pyridinyl urea-containing compound YD57 as a potent inhibitor of apoptosis signal-regulating kinase 1 (ASK1)” (Eur J Med Chem, 2020).

Structures are written as SMILES.

Experiment [1] concerns the target T1, Mitogen-activated protein kinase kinase kinase 5 (Homo sapiens, UniProt Q99683).
T1 sequence (Q99683 whole entry): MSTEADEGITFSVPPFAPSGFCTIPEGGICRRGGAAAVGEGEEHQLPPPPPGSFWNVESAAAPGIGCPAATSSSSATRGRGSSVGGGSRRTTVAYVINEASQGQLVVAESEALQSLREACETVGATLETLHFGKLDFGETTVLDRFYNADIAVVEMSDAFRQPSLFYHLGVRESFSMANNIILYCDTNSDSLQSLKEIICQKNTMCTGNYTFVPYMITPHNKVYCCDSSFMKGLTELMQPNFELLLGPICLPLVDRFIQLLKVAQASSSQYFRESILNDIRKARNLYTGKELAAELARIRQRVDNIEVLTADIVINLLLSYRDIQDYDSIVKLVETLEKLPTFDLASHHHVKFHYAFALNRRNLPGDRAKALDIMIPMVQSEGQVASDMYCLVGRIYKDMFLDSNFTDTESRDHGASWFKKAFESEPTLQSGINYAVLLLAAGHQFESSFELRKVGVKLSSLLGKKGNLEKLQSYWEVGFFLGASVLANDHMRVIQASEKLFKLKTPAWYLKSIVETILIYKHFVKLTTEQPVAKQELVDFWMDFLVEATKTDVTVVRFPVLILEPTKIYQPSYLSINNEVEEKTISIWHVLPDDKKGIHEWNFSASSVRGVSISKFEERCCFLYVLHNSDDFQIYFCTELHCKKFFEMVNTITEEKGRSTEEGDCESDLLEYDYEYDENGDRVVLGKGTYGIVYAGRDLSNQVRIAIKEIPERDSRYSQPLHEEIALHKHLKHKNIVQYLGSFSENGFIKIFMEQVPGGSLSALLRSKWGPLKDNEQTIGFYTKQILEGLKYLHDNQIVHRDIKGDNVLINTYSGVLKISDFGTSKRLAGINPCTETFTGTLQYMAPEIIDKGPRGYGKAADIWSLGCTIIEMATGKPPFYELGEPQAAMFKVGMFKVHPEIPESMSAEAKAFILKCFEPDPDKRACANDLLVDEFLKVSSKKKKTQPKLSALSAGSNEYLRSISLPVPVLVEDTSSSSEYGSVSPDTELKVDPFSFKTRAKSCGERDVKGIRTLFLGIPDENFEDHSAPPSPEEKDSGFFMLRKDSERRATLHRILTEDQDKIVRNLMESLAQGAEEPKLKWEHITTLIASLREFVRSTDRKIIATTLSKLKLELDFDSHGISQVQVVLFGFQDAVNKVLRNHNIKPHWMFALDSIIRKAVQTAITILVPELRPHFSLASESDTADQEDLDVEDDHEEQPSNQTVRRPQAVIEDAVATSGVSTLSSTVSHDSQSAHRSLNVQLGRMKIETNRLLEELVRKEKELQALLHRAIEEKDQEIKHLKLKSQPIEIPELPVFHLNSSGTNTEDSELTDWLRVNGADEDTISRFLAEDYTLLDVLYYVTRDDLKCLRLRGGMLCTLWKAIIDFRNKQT
Description: Inhibition of ASK1 (unknown origin).

The target of experiment [2] is T2, Mitogen-activated protein kinase kinase kinase 6 (Homo sapiens, UniProt O95382).
T2 sequence (O95382 whole entry): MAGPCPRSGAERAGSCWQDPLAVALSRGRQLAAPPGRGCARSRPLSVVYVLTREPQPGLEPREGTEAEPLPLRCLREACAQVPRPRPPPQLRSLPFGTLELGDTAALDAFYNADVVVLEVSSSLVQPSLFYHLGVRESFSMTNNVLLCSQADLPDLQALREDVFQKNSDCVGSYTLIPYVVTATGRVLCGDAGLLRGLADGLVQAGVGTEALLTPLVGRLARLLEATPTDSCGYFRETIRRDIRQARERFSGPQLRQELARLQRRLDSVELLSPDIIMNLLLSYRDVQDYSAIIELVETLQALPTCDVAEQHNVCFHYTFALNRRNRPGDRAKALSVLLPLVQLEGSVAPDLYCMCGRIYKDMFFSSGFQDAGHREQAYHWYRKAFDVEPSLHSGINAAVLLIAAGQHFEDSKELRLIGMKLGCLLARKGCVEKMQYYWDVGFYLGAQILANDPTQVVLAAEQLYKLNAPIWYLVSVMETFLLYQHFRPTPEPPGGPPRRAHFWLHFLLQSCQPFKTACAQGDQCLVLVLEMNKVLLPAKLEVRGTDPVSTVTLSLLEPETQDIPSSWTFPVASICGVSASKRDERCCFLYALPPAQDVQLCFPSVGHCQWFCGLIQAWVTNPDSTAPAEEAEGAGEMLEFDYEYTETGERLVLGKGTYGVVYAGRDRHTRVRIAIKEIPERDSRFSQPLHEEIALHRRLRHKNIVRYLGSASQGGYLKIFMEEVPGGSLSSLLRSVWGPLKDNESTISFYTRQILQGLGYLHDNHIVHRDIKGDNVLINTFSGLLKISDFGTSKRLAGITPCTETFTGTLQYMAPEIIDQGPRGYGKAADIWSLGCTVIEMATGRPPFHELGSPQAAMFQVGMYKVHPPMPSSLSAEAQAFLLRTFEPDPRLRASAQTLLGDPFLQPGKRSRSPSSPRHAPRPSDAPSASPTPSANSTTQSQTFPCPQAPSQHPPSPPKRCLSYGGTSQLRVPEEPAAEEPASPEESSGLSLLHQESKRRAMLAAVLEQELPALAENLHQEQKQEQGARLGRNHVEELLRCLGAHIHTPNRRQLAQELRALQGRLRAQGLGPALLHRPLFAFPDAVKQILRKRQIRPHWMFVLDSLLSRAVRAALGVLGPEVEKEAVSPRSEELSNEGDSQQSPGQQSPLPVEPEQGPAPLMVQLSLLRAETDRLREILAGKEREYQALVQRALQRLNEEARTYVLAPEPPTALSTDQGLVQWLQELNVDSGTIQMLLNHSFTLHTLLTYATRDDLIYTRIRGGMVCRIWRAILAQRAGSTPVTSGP
Briefly: Inhibition of ASK2 (unknown origin).

Experiment [3] has as its target T3, Mitogen-activated protein kinase kinase kinase 7 (Homo sapiens, UniProt O43318).
T3 sequence (O43318 whole entry): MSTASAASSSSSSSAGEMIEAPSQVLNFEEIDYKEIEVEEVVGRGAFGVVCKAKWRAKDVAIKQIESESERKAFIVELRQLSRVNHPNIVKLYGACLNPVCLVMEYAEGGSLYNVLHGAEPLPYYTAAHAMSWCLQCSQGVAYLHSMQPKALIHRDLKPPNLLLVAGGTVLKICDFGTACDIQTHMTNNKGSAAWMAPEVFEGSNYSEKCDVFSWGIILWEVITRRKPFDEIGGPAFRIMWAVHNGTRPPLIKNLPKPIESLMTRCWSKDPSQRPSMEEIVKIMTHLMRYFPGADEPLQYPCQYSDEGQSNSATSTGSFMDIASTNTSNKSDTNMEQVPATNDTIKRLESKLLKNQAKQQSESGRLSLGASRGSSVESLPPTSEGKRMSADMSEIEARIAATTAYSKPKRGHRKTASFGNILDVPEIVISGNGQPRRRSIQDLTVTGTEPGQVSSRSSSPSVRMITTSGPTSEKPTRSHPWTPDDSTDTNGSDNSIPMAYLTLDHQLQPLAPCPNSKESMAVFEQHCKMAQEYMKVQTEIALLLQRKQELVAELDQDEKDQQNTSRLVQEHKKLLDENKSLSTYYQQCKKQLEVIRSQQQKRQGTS
Briefly: Inhibition of TAK1 (unknown origin).

For the molecule `CC(C)n1cnnc1-c1cccc(NC(=O)Oc2ccccc2)n1`, the half-inhibitory concentration (IC50) in experiment [1] was above 10000 nM.
Take `CC(C)n1cnnc1-c1cccc(NC(=O)Nc2ccc(-c3cnn(C)c3)cn2)n1`: inhibition in experiment [1] was half-maximal at 64.2 nM (IC50).
Same read-out and setting: with `CC(C)n1cnnc1-c1cccc(NC(=O)Nc2cnn3ccccc23)n1` the figure was 3650 nM; with `CC(C)n1cnnc1-c1cccc(NC(=O)Nc2cc(C3CC3)nn2C)n1`, above 10000 nM.
Same read-out and setting: with `CC(C)n1cnnc1-c1cccc(NC(=O)Nc2cccc(-c3cnn(C)c3)c2)n1` the figure was 2120 nM; with `CC(C)n1cnnc1-c1cccc(NC(=O)Nc2ccc(-c3cnn(C)c3)cc2)n1`, 245 nM; with `CC(C)n1cnnc1-c1cccc(NC(=O)N(C)c2ccc3ccccc3n2)n1`, 319 nM.
Same read-out and setting: next, `CC(C)n1cnnc1-c1cccc(NC(=O)NCc2ccccc2)n1`: 7020 nM.
`CC(C)n1cnnc1-c1cccc(NC(=O)Nc2ncc3[nH]cnc3n2)n1`: the 50% inhibitory concentration (IC50) was found to be 32.6 nM in experiment [1], 742 nM in experiment [2] and 1210 nM in experiment [3].
The molecule `CC(C)n1cnnc1-c1cccc(NC(=O)Nc2cnc3ccccn23)n1` came in with an IC50 in experiment [1] above 10000 nM.
`CC(C)n1cnnc1-c1cccc(NC(=O)Nc2ccc(-c3ccn(C)n3)cn2)n1`: the 50% inhibitory concentration (IC50) in experiment [1] was 64.2 nM; in experiment [2] it was 2780 nM; in experiment [3], 2220 nM.
In the same order, the values of `CC(C)n1cnnc1-c1cccc(NC(=O)Nc2ccccn2)n1` are 43.4 nM, 1090 nM and 734 nM.
In turn, `CC(C)n1cnnc1-c1cccc(NC(=O)Nc2ccn[nH]2)n1` registered an IC50 in experiment [1] of 66.7 nM.
Same read-out and setting: next, `CC(C)n1cnnc1-c1cccc(NC(=O)Nc2cncc3ccccc23)n1`: above 10000 nM; `CC(C)n1cnnc1-c1cccc(NC(=O)OCc2ccccc2)n1`: 1520 nM.
As to `C[C@H](CO)n1cnnc1-c1cccc(NC(=O)Nc2cnc3ccccc3n2)n1`, the results for the concentration for half-maximal inhibition (IC50) in experiment [1], in experiment [2] and in experiment [3] were 114 nM, above 10000 nM and above 10000 nM, respectively.
For `C[C@H](CO)n1cnnc1-c1cccc(NC(=O)Nc2ccc3ccccc3n2)n1`, the IC50 in experiment [1] was found to be 47.4 nM; in experiment [2] it was 2860 nM; in experiment [3] it was 1880 nM.
`CC(C)n1cnnc1-c1cccc(NC(=O)Nc2ccccc2)n1` displayed an IC50 in experiment [1] of 2840 nM.
Consider `CC(C)n1cnnc1-c1cccc(NC(=O)Nc2nccc3ccccc23)n1`, for which the concentration for half-maximal inhibition (IC50) in experiment [1] worked out at 48.5 nM; in experiment [2], 201 nM; in experiment [3], 85.2 nM.
`Cc1cc(NC(=O)Nc2cccc(-c3nncn3C(C)C)n2)[nH]n1` yielded a half-maximal inhibitory concentration (IC50) in experiment [1] of 142 nM.
With `C[C@H](CO)n1cnnc1-c1cccc(NC(=O)Nc2nccc3ccccc23)n1`, the IC50 stood at 37.9 nM in experiment [1], 264 nM in experiment [2] and 63.7 nM in experiment [3].
The molecule `CC(C)n1cnnc1-c1cccc(NC(=O)Nc2cc(C3CC3)n[nH]2)n1` yielded an IC50 in experiment [1] of 124 nM.
Still for that read-out and setting: with `CC(C)c1cc(NC(=O)Nc2cccc(-c3nncn3C(C)C)n2)[nH]n1` the figure was 393 nM.
The same measure, in the same setting: next, `Cc1cc(NC(=O)Nc2cccc(-c3nncn3C(C)C)n2)n(C)n1`: 4140 nM; `CC(C)n1cnnc1-c1cccc(NC(=O)Nc2ccnc3ccccc23)n1`: 3260 nM.
The same measure, in the same setting: next, `CC(C)n1cnnc1-c1cccc(NC(=O)Nc2cccnc2)n1`: 1210 nM; `CC(C)n1cnnc1-c1cccc(NC(=O)Nc2cnccn2)n1`: 90.3 nM.
Turning to `CC(C)n1cnnc1-c1cccc(NC(=O)Nc2ncc3ccccc3n2)n1`, the results for the IC50 in experiment [1], in experiment [2] and in experiment [3] were 65.7 nM, 2910 nM and 4220 nM, respectively.
For `C[C@H](CO)n1cnnc1-c1cccc(NC(=O)Nc2ncc3ccccc3n2)n1` the same measures were 81 nM, 7170 nM and 5770 nM.
For `CC(C)n1cnnc1-c1cccc(NC(=O)Nc2cc3ccccn3n2)n1` the same measures were 85.3 nM, 4990 nM and above 10000 nM.
In the case of `CCc1cc(NC(=O)Nc2cccc(-c3nncn3C(C)C)n2)[nH]n1`, half-maximal inhibition in experiment [1] (IC50) required 153 nM.
In the case of `CC(C)n1cnnc1-c1cccc(NC(=O)Nc2nc3ccccc3[nH]2)n1`, the IC50 in experiment [1] stood at 111 nM.
On the same count and under the same terms, with `CC(C)n1cnnc1-c1cccc(NC(=O)Nc2cnn(C)c2)n1` the figure was 1860 nM.
In the case of `CC(C)n1cnnc1-c1cccc(NC(=O)Nc2cc3ccccc3cn2)n1`, the half-maximal inhibitory concentration (IC50) in experiment [1] came to 50.6 nM; in experiment [2], 1590 nM; in experiment [3], 1360 nM.
For `CC(C)n1cnnc1-c1cccc(NC(=O)Nc2cnc3ccccc3n2)n1` the same measures were 58 nM, 4860 nM and 6800 nM.
Consider `CC(C)OC(=O)Nc1cccc(-c2nncn2C(C)C)n1`, for which 473 nM corresponded to half-maximal inhibition in experiment [1] (IC50).
Same read-out and setting: next, `Cc1cc(NC(=O)Nc2cccc(-c3nncn3C(C)C)n2)nn1C`: 143 nM.
Same read-out and setting: next, `CC(C)n1cnnc1-c1cccc(NC(=O)Nc2nn(C)c3ccccc23)n1`: 259 nM; `CC(C)n1cnnc1-c1cccc(NC(=O)Nc2ccncc2)n1`: 337 nM.
`CC(C)n1cnnc1-c1cccc(NC(=O)Nc2ncnc3ccccc23)n1`: the values for the IC50 in experiment [1], in experiment [2] and in experiment [3] were 71 nM, 1480 nM and 421 nM, respectively.
In experiment [1], `CC(C)n1cnnc1-c1cccc(N(C)C(=O)N(C)c2cc3ccccn3n2)n1` yielded a 50% inhibitory concentration (IC50) of 6640 nM.

The IC50 is the concentration needed to halve the response being measured. Read a high IC50 as weaker potency in that assay.
